Results from patent US20220202783A1, “Use Of ADAM9 Inhibitor As Immunomodulator” (China Medical University, priority 2019, published 2022).

Assays:
PC-080 = assay: cytotoxicity on pancreatic cancer cells, PC-080; type: cell-based; details: Pancreatic cancer cell
Experimental: (§1) In addition, the IC50 values (unit is μM) of the compound SW1 and the compound SW2 on pancreatic cancer cells were measured in the experiment.

TC1-WT lung cancer cells = assay: Annexin V and PI staining for cell apoptosis; type: cell-based; details: 24 hours, compared with TC1-ADAM9 KO lung cancer cells
Experimental: In the experiment, TC1-WT lung cancer cells and TC1-ADAM9 KO lung cancer cells were further treated with the compound SW1 or the compound SW2 for 24 hours, and then stained with Annexin V and PI to detect cell apoptosis. Please refer to FIG. 2F, where the percentage of Annexin V+ cells (apoptotic cells) is the statistical result from three independent experiments, with mean±SD.

[1] = system: control Bm7 lung cancer cells; assay: colony-forming assay, Bm7; type: cell-based; details: 20 μM, control Bm7 lung cancer cells (shGFP)
Experimental: To further test the planting efficiency of tumor cells treated with the compound SW1 and the compound SW2, in the experiment, control Bm7 lung cancer cells (treated with shGFP) and ADAM9 KO Bm7 lung cancer cells (treated with shADAM9) were treated with 20 μM of the compound SW1 or the compound SW2 respectively, and TC1-wild-type (WT) lung cancer cells and TC1-ADAM9 KO lung cancer cells were treated with 10 μM of the compound SW1 or the compound SW2 respectively. Then colony-forming assay was used to confirm the planting efficiency of each test group. Please refer to FIGS. 2D and 2E, wherein mock represents the tumor cell lines without treatment of the compound SW1 or the compound SW2. Representative images of colony-forming assay are shown at the bottom, and data are means±SD of 6 separate wells.

lung cancer cells (TC1) = assay: cytotoxicity assay in TC1 cells; type: cell-based; parameters: key to effect of inhibiting tumor cell growth: “+” represents that the compound has the effect of inhibiting tumor cell growth; details: for IC50: TC-1
In short: (§2)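 Compounds of Formula (I) were tested in a cytotoxicity assay, and IC50 values were determined from the resulting cell-killing data.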

HPAC-GFP-Luc = assay: cytotoxicity on pancreatic cancer cells, HPAC-GFP-Luc; type: cell-based; details: Pancreatic cancer cell
Experimental: as §1

recombinant human ADAM9 = biological target: T1, recombinant human ADAM9 (Homo sapiens, UniProt Q13443); assay: ADAM9 enzymatic activity ELISA with fluorescent peptide substrate; type: biochemical; details: different concentrations
T1 construct: purchased R&D system
T1 sequence (Q13443 29-819): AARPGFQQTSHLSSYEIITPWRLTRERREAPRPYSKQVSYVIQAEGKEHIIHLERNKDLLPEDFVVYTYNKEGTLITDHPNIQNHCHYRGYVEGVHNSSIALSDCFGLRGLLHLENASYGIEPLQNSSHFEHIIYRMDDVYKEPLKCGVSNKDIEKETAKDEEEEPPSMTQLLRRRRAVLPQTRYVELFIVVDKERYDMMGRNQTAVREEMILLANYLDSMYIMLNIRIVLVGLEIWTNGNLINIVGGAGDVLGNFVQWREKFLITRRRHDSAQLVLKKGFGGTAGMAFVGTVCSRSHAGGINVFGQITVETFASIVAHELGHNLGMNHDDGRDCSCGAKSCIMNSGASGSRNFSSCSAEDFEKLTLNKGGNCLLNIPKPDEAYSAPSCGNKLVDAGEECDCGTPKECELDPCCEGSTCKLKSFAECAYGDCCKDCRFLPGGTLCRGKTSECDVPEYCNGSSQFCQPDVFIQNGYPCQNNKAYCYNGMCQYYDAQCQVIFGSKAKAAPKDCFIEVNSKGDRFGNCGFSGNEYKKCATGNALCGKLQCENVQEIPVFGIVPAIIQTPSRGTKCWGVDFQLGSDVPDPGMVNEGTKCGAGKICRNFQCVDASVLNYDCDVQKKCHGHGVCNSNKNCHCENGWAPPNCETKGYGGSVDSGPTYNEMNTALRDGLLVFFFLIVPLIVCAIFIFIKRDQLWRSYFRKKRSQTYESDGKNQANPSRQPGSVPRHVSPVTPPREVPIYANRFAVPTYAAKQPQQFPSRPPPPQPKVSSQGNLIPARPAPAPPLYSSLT
From the text: To measure the efficacy of the compound of Formula (I) in suppression of ADAM9 enzymatic activity, an ELISA system was established using recombinant human ADAM9 and a fluorescent peptide substrate (R&D system) in the experiment. Broad-spectrum MMP inhibitor-BB-94 was included as a positive control. The compounds of Formula (I) used in this experiment were the compound SW1 and the compound SW2.

[2] = system: breast cancer cells (231-brm); assay: cytotoxicity assay in 231-brm cells; type: cell-based; parameters: key to effect of inhibiting tumor cell growth: “+” represents that the compound has the effect of inhibiting tumor cell growth
Su86-86-GFP-Luc = assay: cytotoxicity on pancreatic cancer cells, Su86-86-GFP-Luc; type: cell-based; details: Pancreatic cancer cell
Experimental: as §1

[3] = system: kidney cancer cells (293); assay: cytotoxicity assay in 293 cells; type: cell-based; details: Homo sapiens, HEK293
Bm7 lung cancer cells [4] = assay: tumor sphere formation; type: cell-based; details: 25 μM, 12 hours
Experimental: In the experiment, the Bm7 lung cancer cells were treated with 25 μM of the compound SW1 or the compound SW2 for 12 hours, and the number of tumor spheres formed was determined. Please refer to FIG. 2H, where mock represents Bm7 lung cancer cells without treatment.

[5] = cytotoxicity assay in HNOF cells; type: cell-based; parameters: key to effect of inhibiting tumor cell growth: “+” represents that the compound has the effect of inhibiting tumor cell growth; details: human, HNOF cells
HNOF = assay: cytotoxicity assay in HNOF cells; type: cell-based; parameters: key to effect of inhibiting tumor cell growth: “+” represents that the compound has the effect of inhibiting tumor cell growth; details: HNOF
[6] = system: lung cancer brain metastatic cell line-Bm7brmx2; assay: anoikis in anchorage-free culture, Bm7brmx2; type: cell-based; details: read-out: IC50 value for anoikis (anchorage-free induced apoptosis)
Experimental: (§3) To ensure the compound SW1 and the compound SW2 in blocking anoikis-resistance of cancer cells, the IC50 value (unit is μM) of the compound SW1 and the compound SW2 for anoikis (anchorage-free induced apoptosis) in lung cancer brain metastatic cell line-Bm7brmx2, breast cancer brain metastatic cell line-MDA-231 brm and leukocytes in anchorage-free culture conditions were determined.

[7] = system: lung cancer cells (Bm7brmx2-1st); assay: cytotoxicity assay in Bm7brmx2-1st cells; type: cell-based; parameters: key to effect of inhibiting tumor cell growth: “+” represents that the compound has the effect of inhibiting tumor cell growth
In short: as §2

leukocytes = assay: anoikis in anchorage-free culture, leukocytes; type: cell-based; details: Leukocyte, read-out: IC50 value for anoikis (anchorage-free induced apoptosis)
Experimental: as §3

PE10 WBC = assay: cytotoxicity assay in PE10 WBC; type: cell-based; parameters: key to effect of inhibiting tumor cell growth: “+” represents that the compound has the effect of inhibiting tumor cell growth
Bm7 lung cancer cells [8] = assay: migration inhibition assay; type: cell-based; details: 25 μM, control Bm7 lung cancer cells (shGFP)
Experimental: To further evaluate the specificity of the compound SW1 and the compound SW2, control Bm7 lung cancer cells (treated with shGFP) and ADAM9 knockout (KO) Bm7 lung cancer cells (treated with shADAM9) were treated with 25 μM of the compound SW1 or the compound SW2, respectively, and then performed a migration inhibition assay.

Bm7 lung cancer cells [9] = assay: cytotoxicity assay, FIG. 1B and Table 2 summary; type: cell-based
Experimental: Please refer to FIG. 1A, FIG. 1B and Table 2, which show the analysis results of the compound of Formula (I) inhibiting ADAM9 activity. In FIG. 1A, Bm7 lung cancer cells were treated with the derivatives of the compound 6X-0310, and then cultured under anchorage-free culture condition. The expressions of ADAM9 and CDCP1 in Bm7 lung cancer cells were detected by Western blot, in which EF1α is an internal control, and mock represents Bm7 lung cancer cells without treatment. […] In the experiment, the compounds of Formula (I) of Example 1 to Example 32 were further performed cytotoxicity assay to measure the IC50 value of the compounds of Formula (I) of the present disclosure in lung cancer cell lines.

[10] = system: lung cancer cells (Bm7brmx2); assay: cytotoxicity assay in Bm7brmx2 cells; type: cell-based; parameters: key to effect of inhibiting tumor cell growth: “+” represents that the compound has the effect of inhibiting tumor cell growth
In short: as §2

[11] = system: breast cancer brain metastatic cell line-MDA-231 brm; assay: anoikis in anchorage-free culture, MDA-231brm; type: cell-based; details: read-out: IC50 value for anoikis (anchorage-free induced apoptosis)
Experimental: as §3

Structure (SMILES) | IC50 (PC-080) | cell apoptosis (Annexin V+ cells) (TC1-WT lung cancer cells) | planting efficiency, colony-forming assay [1] | effect of inhibiting tumor cell growth (lung cancer cells (TC1)) | IC50 (lung cancer cells (TC1)) | IC50 (HPAC-GFP-Luc) | inhibition of ADAM9 activity (recombinant human ADAM9) | IC50 [2] | effect of inhibiting tumor cell growth [2] | IC50 (Su86-86-GFP-Luc) | IC50 [3] | number of tumor spheres formed (Bm7 lung cancer cells [4]) | IC50 [5] | effect of inhibiting tumor cell growth (HNOF) | IC50 [6] | IC50 [7] | effect of inhibiting tumor cell growth [7] | IC50 (leukocytes) | IC50 (PE10 WBC) | effect of inhibiting tumor cell growth (PE10 WBC) | other results
O=C1c2ccccc2C(=O)N1CCc1csc(Nc2nc(CCN3C(=O)c4ccccc4C3=O)cs2)n1 [SW1] | 446 µM | induce cell apoptosis | greatly reduce the planting efficiency | + | 80.4 µM | 126 µM | decrease ADAM9 activity to a similar extent in a dose-dependent manner | 4.5 µM | + | 59.2 µM | 81.3 µM | greatly reduce the number of tumor spheres | 97.8 µM | + | 20 µM | 40.4 µM | + | > 200 µM | 14500 µM | + | migration ability (Bm7 lung cancer cells [8]): significantly reduce the migration ability; tumor cell cytotoxicity compared with the core structure compound 6X-0310 (Bm7 lung cancer cells [9]): stronger tumor cell cytotoxicity; IC50 [10]: 71.6 µM; effect of inhibiting tumor cell growth [10]: +; IC50 [11]: 4.5 µM
O=C(Nc1nc(CCN2C(=O)c3ccccc3C2=O)cs1)c1cc2ccccc2s1 [SW2] | 89.6 µM | induce cell apoptosis | greatly reduce the planting efficiency | + | 64.2 µM | 29.3 µM | decrease ADAM9 activity to a similar extent in a dose-dependent manner | 7.55 µM | + | 66.8 µM | 15 µM | greatly reduce the number of tumor spheres | 61.9 µM | + | 27 µM | 44.3 µM | + | 76 µM | 76.5 µM | + | migration ability (Bm7 lung cancer cells [8]): significantly reduce the migration ability; tumor cell cytotoxicity compared with the core structure compound 6X-0310 (Bm7 lung cancer cells [9]): stronger tumor cell cytotoxicity; IC50 [10]: 52.7 µM; effect of inhibiting tumor cell growth [10]: +; IC50 [11]: 7.5 µM
